In ChEMBL document CHEMBL1121841, “Toxicity quantitative structure--activity relationships of colchicines” (J Med Chem, 1981):

What was measured:
[1] = test system: Mus musculus; experiment: Percent increase in life-span against in vivo P388 murine leukemia at a dose 0.78 mg/kg in trail 2; format: functional
[2] = test system: Mus musculus; experiment: Percent increase in life-span against in vivo P388 murine leukemia at a dose 1.56 mg/kg in trail 1; format: functional
[3] = test system: Mus musculus; experiment: Percent increase in life-span against in vivo P388 murine leukemia at a dose 1.56 mg/kg in trail 2; format: functional
[4] = test system: Mus musculus; experiment: Percent increase in life-span against in vivo P388 murine leukemia at a dose 12.5 mg/kg in trail 2; format: functional
[5] = test system: Mus musculus; experiment: Percent increase in life-span against in vivo P388 murine leukemia at a dose 3.12 mg/kg in trail 1; format: functional
[6] = test system: Mus musculus; experiment: Percent increase in life-span against in vivo P388 murine leukemia at a dose 3.12 mg/kg in trail 2; format: functional
[7] = test system: Mus musculus; experiment: Percent increase in life-span against in vivo P388 murine leukemia at a dose 6.25 mg/kg in trail 1; format: functional
[8] = test system: Mus musculus; experiment: Percent increase in life-span against in vivo P388 murine leukemia at a dose 6.25 mg/kg in trail 2; format: functional
[9] = test system: Mus musculus; experiment: Percent increase in life-span against in vivo P388 murine leukemia at a dose 0.78 mg/kg in trail 1; format: functional
[10] = test system: Mus musculus; experiment: Percent increase in life-span against in vivo P388 murine leukemia at a dose 0.39 mg/kg in trail 2; format: functional
[11] = test system: Mus musculus; experiment: Percent increase in life-span against in vivo P388 murine leukemia at a dose 0.39 mg/kg) in trail 1; format: functional
[12] = species on record: Mus musculus; settings: in vivo
Description: Logarithm of toxic activity (1/lethal dose) in mice bearing P388 leukemia on chronic regimen (Q 1-9)

[13] = physchem; settings: octanol/water
Description: Partition coefficient (logP)

[14] = Compound was tested for toxicity in P388 tumored mice; format: organism-based; settings: mouse, in vivo
[15] = Compound was tested for toxicity in non tumored mice; format: organism-based; settings: mouse, in vivo
[16] = test system: Mus musculus; experiment: Percent increase in life-span against in vivo P388 murine leukemia at a dose 0.06 mg/kg in trail 1; format: functional
[17] = test system: Mus musculus; experiment: Percent increase in life-span against in vivo P388 murine leukemia at a dose 0.06 mg/kg in trail 2; format: functional
[18] = test system: Mus musculus; experiment: Percent increase in life-span against in vivo P388 murine leukemia at a dose 0.12 mg/kg in trail 1; format: functional
[19] = test system: Mus musculus; experiment: Percent increase in life-span against in vivo P388 murine leukemia at a dose 0.12 mg/kg in trail 2; format: functional
[20] = test system: Mus musculus; experiment: Percent increase in life-span against in vivo P388 murine leukemia at a dose 0.25 mg/kg in trail 1; format: functional
[21] = test system: Mus musculus; experiment: Percent increase in life-span against in vivo P388 murine leukemia at a dose 0.25 mg/kg in trail 2; format: functional
[22] = test system: Mus musculus; experiment: Percent increase in life-span against in vivo P388 murine leukemia at a dose 0.5 mg/kg in trail 1; format: functional
[23] = test system: Mus musculus; experiment: Percent increase in life-span against in vivo P388 murine leukemia at a dose 0.5 mg/kg in trail 2; format: functional

Row | Compound | Log 1/LD50 [12] | LD50 [14] [mg/kg] | LD50 [15] [mg/kg] | further results
1 | COc1c(C=O)c2c(c(OC)c1OC)-c1ccc(OC)c(=O)cc1[C@@H](NC(C)=O)CC2 | 4.14 |  |  | ILS at 0.78 mg/kg [1]: 49%; ILS at 1.56 mg/kg [2]: 60%; ILS at 1.56 mg/kg [3]: 75%; ILS at 12.5 mg/kg [4]: 2%; ILS at 3.12 mg/kg [5]: 94%; ILS at 3.12 mg/kg [6]: 80%; ILS at 6.25 mg/kg [7]: 105%; ILS at 6.25 mg/kg [8]: 105%; ILS at 0.78 mg/kg [9]: 54%; ILS at 0.39 mg/kg [10]: 49%; ILS at 0.39 mg/kg [11]: 51%; logP [13]: 5.92
2 | COC1=C2C(=CC(=O)C1OC)CC[C@H](NC(C)=O)c1cc(=O)c(OC)ccc12 (some centres undefined) | 5.82 |  |  | logP [13]: 0.93
3 | COc1c(C#N)c2c(c(OC)c1OC)-c1ccc(OC)c(=O)cc1[C@@H](NC(C)=O)CC2 | 3.8 |  |  | logP [13]: 4.46
4 | CCOC(=O)N[C@H]1CCc2cc(OC)c(OC)c(OC)c2-c2ccc(SC)c(=O)cc21 | 4.19 |  |  | 
5 | COc1cc2c(c(OC)c1OC)-c1ccc(SC)c(=O)cc1[C@@H](NC(=O)C(F)(F)F)CC2 | 5.51 | 1.4 | 3.5 | 
6 | COc1cc2c(c(OC)c1OC)-c1ccc(OC)c(=O)cc1[C@@H](NC(=O)c1ccccc1)CC2 | 4.24 |  |  | 
7 | COc1cc2c(c(OC)c1OC)-c1ccc(SC)c(=O)cc1[C@@H](N)CC2 | 3.75 | 69 | 177 | 
8 | COc1cc2c(c(OC)c1OC)-c1ccc(SC)c(=O)cc1[C@@H](NC(=O)NCCCl)CC2 | 4.93 |  |  | 
9 | COc1cc2c(c(OC)c1OC)-c1ccc(OC)c(=O)cc1[C@@H](NC(=O)CCl)CC2 | 5.54 |  |  | 
10 | COc1cc2c(c(OC)c1OC)-c1ccc(OC)c(=O)cc1[C@@H](NC(=O)c1ccc([N+](=O)[O-])cc1)CC2 | 4.41 | 20 | 25 | 
11 | COc1cc2c(c(OC)c1OC)-c1ccc(SC)c(=O)cc1[C@@H](NO[C@H]1O[C@@H](CO)[C@H](O)[C@@H](O)[C@@H]1O)CC2 | 3.71 |  |  | logP [13]: 1.25
12 | COc1cc2c(c(OC)c1OC)-c1ccc(SC)c(=O)cc1[C@@H](NO[C@H]1O[C@@H](COC(C)=O)[C@H](OC(C)=O)[C@@H](OC(C)=O)[C@@H]1OC(C)=O)CC2 | 3.81 |  |  | logP [13]: 4.61
13 | COc1cc2c(c(OC)c1OC)-c1ccc(SC)c(=O)cc1[C@@H](NO[C@H]1OC[C@@H](O)[C@@H](O)[C@@H]1O)CC2 | 3.98 | 102 | 251 | logP [13]: 1.4
14 | COc1cc2c(c(OC)c1OC)-c1ccc(SC)c(=O)cc1[C@@H](NC(=O)CCl)CC2 | 5.65 |  |  | 
15 | COc1c(CO)c2c(c(OC)c1OC)-c1ccc(OC)c(=O)cc1[C@@H](NC(C)=O)CC2 | 3.4 |  |  | logP [13]: 4.58
16 | COc1cc2c(c(OC)c1OC)-c1ccc(SC)c(=O)cc1[C@@H](NC(=O)CO)CC2 | 5.66 |  |  | 
17 | COc1cc2c(c(OC)c1OC)-c1ccc(OC)c(=O)cc1[C@@H](NC(=O)C(F)(F)F)CC2 | 5.73 | 0.8 | 1.9 | 
18 | COC(=O)C(N)CCCC/N=c1\ccc2c(cc1O)[C@@H](NC(C)=O)CCc1cc(OC)c(OC)c(OC)c1-2 (some centres undefined) | 3 |  |  | 
19 | COc1cc2c(c(OC)c1OC)-c1ccc(OC)c(=O)cc1[C@@H](NC=O)CC2 | 5.16 | 2.7 | 5 | 
20 | COc1cc2c(c(OC)c1OC)-c1cc/c(=N\Cc3ccccc3)c(O)cc1[C@@H](NC(C)=O)CC2 | 4.28 | 25.1 | 41 | 
21 | COc1cc2c(c(OC)c1OC)-c1ccc(OC)c(=O)cc1[C@@H](NC(=O)CF)CC2 | 5.69 |  |  | 
22 | COc1cc2c(c(OC)c1OC)-c1ccc(SCc3ccccc3)c(=O)cc1[C@@H](NC(C)=O)CC2 | 4.22 |  |  | 
23 | COc1cc2c(c(OC)c1OC)-c1ccc(OC)c(=O)cc1[C@@H](N(C)C)CC2 | 4.21 |  |  | 
24 | CNc1ccc2c(cc1=O)[C@@H](NC(C)=O)CCc1cc(OC)c(OC)c(OC)c1-2 | 5.72 | 0.8 | 1.4 | 
25 | COc1cc2c(c(OC)c1OC)-c1ccc(OC)c(=O)cc1[C@@H](NC(C)=O)CC2 [COLCHICINE] | 5.46 | 1.4 | 1.6 | ILS at 0.06 mg/kg [16]: 27%; ILS at 0.06 mg/kg [17]: 24%; ILS at 0.12 mg/kg [18]: 33%; ILS at 0.12 mg/kg [19]: 40%; ILS at 0.25 mg/kg [20]: 46%; ILS at 0.25 mg/kg [21]: 58%; ILS at 0.5 mg/kg [22]: 78%; ILS at 0.5 mg/kg [23]: 89%
26 | COc1cc2c(c(OC)c1OC)-c1ccc(OC)c(=O)cc1[C@@H](N)CC2 [DEACETYLCOLCHICINE] | 3.71 |  |  | 
27 | CN[C@H]1CCc2cc(OC)c(OC)c(OC)c2-c2ccc(OC)c(=O)cc21 [DEMECOLCINE] | 3.63 |  |  | 
28 | COc1cc2c(c(OC)c1OC)-c1ccc(SC)c(=O)cc1[C@@H](NC(C)=O)CC2 [THIOCOLCHICINE] | 5.62 | 1 | 1 | 
